From ChEMBL document CHEMBL1127328, “Copper complexation by 3-hydroxypyridin-4-one iron chelators: structural and iron competition studies” (J Med Chem, 1994)

How the values were obtained:
Type in all cases: ADME
[1] = Acid dissociation constant was determined
[2] = log K1 value of the compound
[3] = log K2 value of the compound
[4] = log K3 value of the compound

SMILES	pKa ([1]; read-out: pKa1)	Log K1 [2]	Log K2 [3]	pKa ([1]; read-out: pKa2)	Log K3 [4]
Oc1ccncc1O	3.36	9.49	7.64	–	–
O=C(O)CCn1ccc(=O)c(O)c1	2.92	9.48	7.48	8.91	–
Cn1ccc(=O)c(O)c1	3.35	9.35	7.58	8.8	–
CCc1c(O)c(=O)ccn1C	3.74	–	–	9.7	–
Cc1c(O)c(=O)ccn1C [DEFERIPRONE]	3.84	11.48	10.22	9.86	5.64

Now from value to compound, other results behind:

pKa ([1]; read-out: pKa1)	Log K1 [2]	Log K2 [3]	pKa ([1]; read-out: pKa2)	SMILES	Log K3 [4]
3.79	–	–	9.79	CCn1ccc(=O)c(O)c1C	–
3.93	13.18	7.03	10.1	CCc1c(O)c(=O)ccn1CC	2.65
